Laboratory results reported in patent publication US12433911B2, “Preparation and storage of liposomal RNA formulations suitable for therapy” (BIONTECH SE, priority 2019, dated 2025).
Read-outs that look alike come from different tables or passages of the source.

Legend:
[1] = Procedure: The samples were frozen at −30° C. and then transferred to the respective temperature for long-term storage (either −15 or −30° C.). After defined storage time, samples were analyzed and preservation of the colloidal stability was analyzed by measuring the particle size using PCS. These experiments were performed at a total RNA concentration of 0.05 mg/mL.
Method: To investigate the minimum content of representative cryoprotectants as sucrose, trehalose, glucose and mixtures including dextran required for long-term storage at −20° C., RNA lipoplexes were frozen at a fixed cryoprotectant content in combination with varying NaCl concentrations. For monomeric or dimeric molecular cryoprotectants as glucose, sucrose, and trehalose a concentration of 22% (w/v) was adjusted. These formulations were frozen and stored at −15 to −40° C. and long-term stability was investigated by measuring the particle size using PCS after defined storage time.
The samples were frozen and stored at −20° C. After defined storage time, samples were analyzed and preservation of the colloidal stability was analyzed by measuring the particle size.

[2] = Freezing of RNA lipoplexes with cryoprotectants and NaCl, particle size; assay type: physicochemical; conditions: for preservation of particle size: single freezing step, 0 to 60 mM NaCl, 20% (w/v) cryoprotectant
From the text: Methods: Different compounds representative for monosaccharides (glucose and sorbitol), disaccharides (sucrose and trehalose), amino acids (arginine, prolin), triols (glycerin) as well as cryoprotectant systems containing mixtures of different sugars (mannitol and sucrose) were investigated in order to identify suited cryoprotectants (FIGS. 25 and 26). Therefore RNA lipoplexes were frozen in the presence of increasing concentration of these compounds. In order to identify minimum content of cryoprotectant at a certain concentration of NaCl, RNA lipoplexes were frozen in the presence of increasing amounts of sucrose or trehalose as representative cryoprotectants (Table 7). The samples were initially frozen a single time in order to determine the concentration range of cryoprotectant to be investigated in detail. In a third experiment, the efficacy of stabilization of the particle size was challenged by freezing of the RNA lipoplexes up to 10 times in the presence of the cryoprotectant trehalose (Table 8).

[3] = Buffer, pH, NaCl and sucrose stability studies at +25° C. and −15° C. (PCS, pH, capillary electrophoresis); conditions: for stability of the RNA in RNA lipoplexes: Example 2.1, accelerated conditions (25°); for preservation of the particle size and the polydispersity: Example 2.1, frozen state (−15° C.)
Procedure: RNA lipoplexes are incubated under accelerated conditions (25° C.) in the presence of an exemplarily cryoprotectant. RNA integrity was analyzed by capillary electrophoresis over 60 days. Additionally, RNA lipoplexes are incubated under at the anticipated storage conditions (−15° C.) in the presence of an exemplarily cryoprotectant for up to two years. RNA integrity was analyzed by capillary electrophoresis.
The respective RNA lipoplexes were investigated under accelerated conditions (25° C.) and in the frozen state (−15° C.).
RNA lipoplexes were formed with liposomes containing 2 mM of acetic acid. The respective RNA lipoplexes were investigated under accelerated conditions (25° C.) and in the frozen state (−15° C.).
Method: All RNA lipoplexes were automatically prepared in a single batch and the different concentrations of HEPES were adjusted by the addition of a cryoprotectant solution containing different amounts of HEPES. Particle sizes and polydispersity of RNA lipolexes were analyzed by photon correlation spectroscopy (PCS) measurements. Additionally, the RNA integrity was analyzed by capillary electrophoresis and the pH was measured.
In the following study, the concentration of HEPES which is required for stabilization of the pH of the RNA lipoplexes was investigated. RNA lipoplexes were formed with liposomes containing 5 mM of acetic acid and different concentrations of HEPES were adjusted by using different cryoprotectant solutions and the respective RNA lipoplexes were investigated under accelerated conditions (25° C.). The pH range from pH 6.2 to 7.2 was tested.
Methods: As a representative cryoprotectant, sucrose was investigated at a concentration of 10% (w/v). A detailed description of the experiments is given in section 2.
In the following study, the long-term stability of RNA lipoplexes in the frozen state was investigated with the combination of the reduced concentration of NaCl and Sucrose in the presence of either HEPES or Histidine as a buffering agent at a pH of 6.5.

[4] = RNA integrity of RNA lipoplexes under stress conditions (40° C.), capillary electrophoresis; conditions: 21 days, absence of cryoprotectant, by buffering system
Method: RNA lipoplexes are initially incubated under stress conditions (40° C.) in the absence of cryoprotectant. RNA integrity was analyzed by capillary electrophoresis over 21 days. In order to investigate the optimum pH range in the presence of an exemplary cryoprotectant, RNA lipoplexes were incubated in the presence of HEPES and sucrose at 40° C. and RNA integrity was analyzed for 21 days.
RNA integrity was analyzed as a key physicochemical parameter over 21 days.

[5] = DOPE and DOPE/DOTMA solubility in ethanol (HPLC); assay type: physicochemical; conditions: for DOPE solubility in ethanol comprising 220 mM DOTMA, mM after Filtration: DOTMA/DOPE 66:33 in ethanol abs.
Procedure: DOPE and DOPE/DOTMA solubility in ethanol was investigated by preparing 300 mM DOPE or 330 mM DOPE/DOTMA (66:33) solutions in ethanol. The lipids were dissolved by incubating the lipid solutions at 37° C. for 20 minutes. The DOPE solutions were centrifuged at 17000 G for 1 h and the DOPE concentration was measured in the supernatant by HPLC. The DOTMA/DOPE solutions were filtered through a 0.22 μm PES syringe filter and the lipid concentration was measured in the filtrate by HPLC.
Lipid concentration in the different liposome formulations were measured by HPLC (Agilent technologies. Santa Clara. USA) using a Sunfire C18 2.5 μm 4.6×75 mm column (Waters, Massachusetts USA) and a wave length of 205 nm. Mobile phase A was a mixture of 70% methanol/30% isopropanol/0.1% TFA, mobile phase B was a mixture of 55% methanol/15% isopropanol/30% water/0.1% TFA. Liposomes samples were or not diluted with water to 3 mM total lipid concentration.
It has been tested if DOPE-containing solutions of higher concentration can be prepared (in the supersaturated state) and used for ethanol injection for liposome manufacturing (next section).

[6] = compound tested as cryoprotectant
[7] = Example 2.2, accelerated conditions (25° C.)
[8] = Example 2.2, frozen state (−15° C.)
[9] = 70 mM NaCl, up to 10 times freezing

In the case of `OC[C@H]1O[C@@](CO)(O[C@H]2O[C@H](CO)[C@@H](O)[C@H](O)[C@H]2O)[C@@H](O)[C@@H]1O` [sucrose], the “stabilization efficacy between cryoprotectants” value [1] is reported as “No difference” and the “preservation of particle size” value [2] is reported as “acceptable preservation of particle size”.
With `N=C(N)NCCC[C@H](N)C(=O)O` [arginine] the “stabilization of RNA lipoplexes during freezing” value [2, 6] was “clearly destabilizes the RNA lipoplexes”.
In the case of `N[C@@H](Cc1c[nH]cn1)C(=O)O` [Histidine, histidine], the “stability of the RNA in RNA lipoplexes” value [3] is reported as “lower stability”, the “preservation of the particle size and the polydispersity” value [3] is reported as “equally suited” and the “stabilization of the RNA integrity” value [3, 7] is reported as “slightly reduced stability”. The “stabilization of the RNA integrity” value [3, 8] was “comparable stabilization of the RNA integrity”.
In the case of `O=S(=O)(O)CCN1CCN(CCO)CC1` [HEPES, 2-[4-(2-hydroxyethyl)piperazin-1-yl]ethanesulfonic acid], the “HEPES concentration sufficient for stabilization of the adjusted pH” value ([3]; 25° C.) is reported as ≥ 2.5 mM, the “stability of the RNA in RNA lipoplexes” value [3] is reported as “best stability” and the “preservation of the particle size and the polydispersity” value [3] is reported as “equally suited”. The “stabilization of the RNA integrity” value [3, 7] was “comparable stabilization of the RNA integrity”, the “stabilization of the RNA integrity” value [3, 8] was “comparable stabilization of the RNA integrity” and the RNA integrity ([3]; Example 4.1, accelerated +25° C., vs current formulation 20 mM NaCl and 22% sucrose) was “better preserved”.
For `O=P(O)(O)O` [sodium phosphate], the “stabilization of the RNA (RNA integrity)” value [4] was “comparable results”.
With `CCCCCCCC/C=C\CCCCCCCC(=O)OC[C@H](COP(=O)(O)OCCN)OC(=O)CCCCCCC/C=C\CCCCCCCC` [DOPE, 1,2-di-(9Z-octadecenoyl)-sn-glycero-3-phosphoethanolamine] the “DOPE solubility in ethanol comprising 220 mM DOTMA, mM after Filtration” value (“DOPE solubility … after Filtration” below) ([5]; Corden Pharma, F0624) was 93 mM, the “DOPE solubility … after Filtration” value ([5]; Corden Pharma, W0650) was 106 mM and the “DOPE solubility … after Filtration” value ([5]; Merck, MK2885-C) was 94 mM. For the same compound, the “DOPE solubility … after Filtration” value ([5]; NOF, 14099612) was 103 mM, the “DOPE solubility in ethanol” value ([5]; Provider Corden Pharma, Charge Nr. F0624) was 56 mM and the “DOPE solubility in ethanol” value ([5]; Provider Corden Pharma, Charge Nr. W0650) was 59 mM. For the same compound, the “DOPE solubility in ethanol” value ([5]; Provider Merck, Charge Nr. MK2885-C) was 59 mM and the “DOPE solubility in ethanol” value ([5]; Provider NOF, Charge Nr. 14099612) was 63 mM.
In the case of `O=C(O)[C@@H]1CCCN1` [proline], the “stabilization of RNA lipoplexes during freezing” value [2] is reported as “can be used as cryoprotectants”.
For `O=S(=O)(O)CCN1CCOCC1` [MES, 2-(N-morpholino)ethanesulfonic acid], the “stabilization of the RNA integrity” value [3] was “comparable stabilization of the RNA integrity”.
For `O=C([O-])[O-].[Na+].[Na+]` [carbonate, sodium carbonate], the “stabilization of the RNA (RNA integrity)” value [4] was “did not result in comparable stabilization of the RNA”.
With `OC[C@H]1O[C@H](O[C@H]2O[C@H](CO)[C@@H](O)[C@H](O)[C@H]2O)[C@H](O)[C@@H](O)[C@@H]1O` [trehalose] the “stabilization efficacy between cryoprotectants” value [1] was “No difference”, the “trehalose sufficient for stabilization of particle characteristics” value ([2]; 50 mM NaCl, even after 10 times freezing) was ≥ 12.5% and the “trehalose required for exact preservation of the particle size” value [2, 9] was ≥ 22.5%. The “trehalose required for minimum stabilization” value [2, 9] was ≥ 12.5%, the “exact preservation of the particle size” value ([2]; 90 mM NaCl, highest investigated concentration 27.5%) was “could not be achieved” and the “trehalose required for minimum stabilization” value ([2]; 90 mM NaCl, up to 10 times freezing) was ≥ 15.0%. The “preservation of particle size” value [2] was “acceptable preservation of particle size”.
With `OCC(O)CO` [Glycerin, glycerin] the “stabilization of RNA lipoplexes during freezing” value [2, 6] was “can be used as cryoprotectants”.
With `OC[C@@H](O)[C@@H](O)[C@H](O)[C@@H](O)CO` [sorbitol] the “stabilization of RNA lipoplexes during freezing” value [2, 6] was “can be used as cryoprotectants” and the “stabilization efficacy compared with the other cryoprotectants” value ([2]; freezing) was “lower”.
